Source: ChEMBL document CHEMBL1201862, “PubChem BioAssay data set” (2004)
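Dose response: 5 concentrations. Exposure: 48 h. Format: 96-well plates. Endpoint: linear interpolation; highest concentration if not reached. GI50 = concentration required for 50% inhibition of growth.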 Activity calls are given as the source filed them. Rule as the data show it: active = GI50 up to about 1.1 µM and inactive = higher.

Assays:
Assay in all cases: NCI anticancer screen, dose series, 48 h
RPMI-8226 = tested on: RPMI-8226
IGROV-1 = tested on: IGROV-1
SF-539 = tested on: SF-539
HOP-62 = tested on: HOP-62
SK-OV-3 = tested on: SK-OV-3
COLO 205 = tested on: COLO 205
SN12C = tested on: SN12C
UACC-62 = tested on: UACC-62
HCT-15 = tested on: HCT-15
Malme-3M = tested on: Malme-3M
NCI-H460 = tested on: NCI-H460
NCI-H23 = tested on: NCI-H23
SF-268 = tested on: SF-268
TK-10 = tested on: TK-10
CCRF-CEM = tested on: CCRF-CEM

Compound	GI50 (RPMI-8226)	GI50 (IGROV-1)	GI50 (SF-539)	GI50 (HOP-62)	GI50 (SK-OV-3)	GI50 (COLO 205)	GI50 (SN12C)	GI50 (UACC-62)	GI50 (HCT-15) [µM]	GI50 (Malme-3M)	GI50 (NCI-H460)	GI50 (NCI-H23)	GI50 (SF-268)	GI50 (TK-10)	GI50 (CCRF-CEM)
NCCCNCCSSCCCCS(=O)O	26.1 µM (inactive)	> 100 µM (inactive)	80 µM (inactive)	> 100 µM (inactive)	> 100 µM (inactive)	16.4 µM (inactive)	39.6 µM (inactive)	15.7 µM (inactive)	> 100	20.3 µM (inactive)	65.9 µM (inactive)	17.7 µM (inactive)	18.1 µM (inactive)	> 100 µM (inactive)	–
O=C(N/N=C(/c1nc2ccc(Cl)cc2[nH]c1=O)C(O)c1ccc(Cl)cc1Cl)c1ccncc1 (stereo unspecified)	> 100 µM (inactive)	> 100 µM (inactive)	> 100 µM (inactive)	> 100 µM (inactive)	> 100 µM (inactive)	> 100 µM (inactive)	–	> 100 µM (inactive)	> 100	> 100 µM (inactive)	> 100 µM (inactive)	> 100 µM (inactive)	> 100 µM (inactive)	> 100 µM (inactive)	> 100 µM (inactive)
NC(=S)N/N=C(\C(=O)Nc1cccc([N+](=O)[O-])c1)c1nc2ccc([N+](=O)[O-])cc2nc1O	> 100 µM (inactive)	> 100 µM (inactive)	63.1 µM (inactive)	56.8 µM (inactive)	> 100 µM (inactive)	> 100 µM (inactive)	–	51.4 µM (inactive)	29.4	> 100 µM (inactive)	74.6 µM (inactive)	> 100 µM (inactive)	> 100 µM (inactive)	> 100 µM (inactive)	34.8 µM (inactive)
COc1ccc(S(=O)(=O)NNS(C)(=O)=O)cc1	> 100 µM (inactive)	> 100 µM (inactive)	> 100 µM (inactive)	> 100 µM (inactive)	–	> 100 µM (inactive)	> 100 µM (inactive)	> 100 µM (inactive)	> 10	> 100 µM (inactive)	–	> 100 µM (inactive)	> 100 µM (inactive)	> 100 µM (inactive)	70 µM (inactive)
CC(=O)Nc1ccc(-c2nnc(SCC(=O)Nc3ccc(C)cc3)o2)cc1	26.2 µM (inactive)	12.9 µM (inactive)	13.5 µM (inactive)	56.2 µM (inactive)	49.2 µM (inactive)	17.7 µM (inactive)	15.8 µM (inactive)	16.9 µM (inactive)	16.2	15.7 µM (inactive)	23.2 µM (inactive)	15.7 µM (inactive)	20.1 µM (inactive)	27.8 µM (inactive)	24.3 µM (inactive)
Cc1cccc2[n+]1[C@H]1[C@H]([C@@H]3O[C@H]1c1ccccc13)[S+]([O-])N2 (stereo partly specified)	10.8 µM (inactive)	32.3 µM (inactive)	77.6 µM (inactive)	48.1 µM (inactive)	> 100 µM (inactive)	61.1 µM (inactive)	–	–	–	28.6 µM (inactive)	25 µM (inactive)	–	41.1 µM (inactive)	90.4 µM (inactive)	34.8 µM (inactive)
N#C/C(=C\c1cc2ccccc2c2ccccc12)c1ccccc1	6.59 µM (inactive)	11.8 µM (inactive)	6.15 µM (inactive)	2.49 µM (inactive)	6.73 µM (inactive)	3.43 µM (inactive)	9.59 µM (inactive)	3.75 µM (inactive)	5.24	4.86 µM (inactive)	4.67 µM (inactive)	> 30.5 µM (inactive)	8.17 µM (inactive)	> 29.7 µM (inactive)	3.59 µM (inactive)
COc1cc(C2C(C(=O)Nc3ccc([N+](=O)[O-])cc3)=C(C)NC(C)=C2C(=O)Nc2ccc([N+](=O)[O-])cc2)ccc1O	24.3 µM (inactive)	24.9 µM (inactive)	20.9 µM (inactive)	18.4 µM (inactive)	27.9 µM (inactive)	16.4 µM (inactive)	18.4 µM (inactive)	16.7 µM (inactive)	19.1	20.8 µM (inactive)	23.3 µM (inactive)	26.7 µM (inactive)	23.2 µM (inactive)	18.2 µM (inactive)	30.3 µM (inactive)
Cc1ccc(C)c(NC(=O)CCc2nnc(S)[nH]2)c1	> 100 µM (inactive)	86.7 µM (inactive)	> 100 µM (inactive)	> 100 µM (inactive)	> 100 µM (inactive)	> 100 µM (inactive)	> 100 µM (inactive)	> 100 µM (inactive)	44.2	> 100 µM (inactive)	> 100 µM (inactive)	> 100 µM (inactive)	> 100 µM (inactive)	> 100 µM (inactive)	> 100 µM (inactive)
COc1ccc([C@@H]2OC(=O)C3C2C(=O)O[C@H]3c2ccc(OC)c(OC)c2)cc1OC (stereo partly specified)	> 100 µM (inactive)	> 100 µM (inactive)	> 100 µM (inactive)	> 100 µM (inactive)	> 100 µM (inactive)	> 100 µM (inactive)	> 100 µM (inactive)	> 100 µM (inactive)	> 100	> 100 µM (inactive)	> 100 µM (inactive)	> 100 µM (inactive)	> 100 µM (inactive)	> 100 µM (inactive)	> 100 µM (inactive)
